Test results from patent US20250263370A1 (Tay Therapeutics Limited, priority 2022, published 2025).
Values joined by “and” are separate entries in the source; they are usually repeats but may differ in a detail not shown here. Identical values can stand only once. “Also recorded” adds a separate entry of the source. Like-named read-outs stand apart in the source and are kept apart here. Marks after values point to notes of the source that are not given here.

Legend:
Format in all cases: in vivo, Lewis rat
[1] = system: rat anti-collagen IgG1 antibodies; test: Rat anti-collagen IgG1 antibodies in serum of CIA rats at day 21; conditions: for Average rat anti-collagen IgG1 levels, Mean: day 21, group mean; for Final Rat Anti-Collagen IgG1 Antibody Con. / Rat Anti-Collagen IgG1 Antibody Con.: day 21, per animal; for Rat Anti-Collagen IgG1 Antibody Con.: before multiplying by Fold 1000; for levels of rat anti-collagen IgG1 antibodies relative to CIA induced, no treatment: day 21
Protocol: Blood was additionally collected from groups 1-7 via cardiac puncture following euthanasia on Day 21. […] Serum was divided into two separate tubes and stored at −75±15° C. One tube was used to analyze IgG1, and the other tube was reserved for additional analyses.

[2] = system: collagen-induced arthritis; test: Histopathologic analysis of H&E-stained hind limbs of CIA rats; conditions: for Number of animals: Erosion/Ulcer, cartilaginous, Marked / Number of animals: Erosion/Ulcer, cartilaginous, Mild / Number of animals: Erosion/Ulcer, cartilaginous, Minimal / Number of animals: Erosion/Ulcer, cartilaginous, Moderate / Number of animals: Granulation tissue, Marked / Number of animals: Granulation tissue, Mild / Number of animals: Granulation tissue, Minimal / Number of animals: Granulation tissue, Moderate / Number of animals: Increased bone, periosteum, Marked / Number of animals: Increased bone, periosteum, Mild / Number of animals: Increased bone, periosteum, Minimal / Number of animals: Increased bone, periosteum, Moderate / Number of animals: Increased eroded surface, bone, Marked / Number of animals: Increased eroded surface, bone, Mild / Number of animals: Increased eroded surface, bone, Minimal / Number of animals: Increased eroded surface, bone, Moderate / Number of animals: Mixed cell inflammation, Marked / Number of animals: Mixed cell inflammation, Mild / Number of animals: Mixed cell inflammation, Minimal / Number of animals: Mixed cell inflammation, Moderate / Number of animals: No Visible Lesions: hind limbs, CIA induced, 8 animals examined
Description: Hind limbs were collected following euthanasia, with the left limb being used for H&E staining.
H&E-stained slides of designated tissues from animals were transferred to an independent pathologist for microscopic evaluation (SPFBio). Samples were assigned the histologic grades based on the severity of change from tissue where CIA was not induced. Histology grades assigned were as follows: grade 1 (minimal change), grade 2 (mild change), grade 3 (moderate change), grade 4 (marked change), and grade 5 (severe change).
Moderate inflammation was also associated with increased edema fluid, fibrin, and cellular debris. Marked mixed cell inflammation was characterized by dense, widespread accumulations of neutrophils and macrophages with lesser number of lymphocytes within one or more joint spaces, synovium and periarticular soft tissues. Marked inflammation was also associated with abundant edema fluid, fibrin, and cellular debris.
Marked granulation tissue (pannus) was associated with inflammation and was characterized by widespread fibrovascular connective tissue that expanded/replaced the periarticular soft tissues of one or more joints, extended into/expanded joint spaces, was contiguous with areas of erosion/ulcer in articular cartilage and/or increased eroded surface of bone, and variably extended along the diaphysis.
Instances of minimal increased eroded surface were not associated with fragments of bone contiguous and/or surrounded by granulation tissue. […] In some areas, increased eroded surfaces were contiguous with areas of erosion/ulcer in the articular cartilages. Instance of marked increased eroded surface were often associated with fragments of bone contiguous with and/or surrounded by granulation tissue.
This observation was typically most pronounced at joint margins (transition zone). The ulceration was often associated with inflammation and granulation tissue extending through the defect to the subchondral bone.
Marked increased periosteal bone (periosteal bone formation) was characterized by extensive areas of increased bone matrix and numerous prominent osteoblasts lining trabecular surfaces along the metaphysis and/or diaphysis of one or more bones. In some areas, increased periosteal bone was contiguous with increased eroded surface and/or erosion/ulcer at articular cartilage.

[3] = Pharmacokinetics and plasma concentration of Example 101 in Lewis rats after oral administration (CIA study)
[4] = CIA rats, 3 mg/kg (group 5), hind limb H&E
[5] = CIA rats, 10 mg/kg (group 6), hind limb H&E
[6] = CIA rats, 30 mg/kg (group 7), hind limb H&E
[7] = Lewis rats, oral, 10 mg/kg, day 20, mean

CNC(=O)c1[nH]c(C(=O)NC2CCC2)cc1O[C@@H](C)c1ccccc1 (stereo in doubt) [Example 101, N^5-cyclobutyl-N^2-methyl-3-(1-phenylethoxy)-1H-pyrrole-2,5-dicarboxamide]
Average rat anti-collagen IgG1 levels, Mean ([1]; Group 5 (CIA), 3 mg/kg): 7247.32*
Final Rat Anti-Collagen IgG1 Antibody Con. ([1]; Group 5 (CIA), 3 mg/kg): 7202.91 units/ml and 5737.56 units/ml and 596.39 units/ml and 17040.09 units/ml and 6834.32 units/ml and 2359.32 units/ml and 1570.97 units/ml and 16636.97 units/ml
Average rat anti-collagen IgG1 levels, Mean ([1]; Group 6 (CIA), 10 mg/kg): 10839.90
Final Rat Anti-Collagen IgG1 Antibody Con. ([1]; Group 6 (CIA), 10 mg/kg): 44339.86 units/ml and 9577.48 units/ml and 15070.08 units/ml and 545.06 units/ml and 12072.29 units/ml and 3772.28 units/ml and 782.47 units/ml and 559.69 units/ml
Average rat anti-collagen IgG1 levels, Mean ([1]; Group 7 (CIA), 30 mg/kg): 1447.13**
Final Rat Anti-Collagen IgG1 Antibody Con. ([1]; Group 7 (CIA), 30 mg/kg): 219.33 units/ml and 81.22 units/ml and 1208.05 units/ml and 4311.36 units/ml and 1799.62 units/ml and 548.72 units/ml and 1961.63 units/ml
Rat Anti-Collagen IgG1 Antibody Con. ([1]; Group 5 (CIA), 3 mg/kg): 7.20 units/ml and 5.74 units/ml and 0.60 units/ml and 17.04 units/ml and 6.83 units/ml and 2.36 units/ml and 1.57 units/ml and 16.64 units/ml
Rat Anti-Collagen IgG1 Antibody Con. ([1]; Group 6 (CIA), 10 mg/kg): 44.34 units/ml and 9.58 units/ml and 15.07 units/ml and 0.55 units/ml and 12.07 units/ml and 3.77 units/ml and 0.78 units/ml and 0.56 units/ml
Rat Anti-Collagen IgG1 Antibody Con. ([1]; Group 7 (CIA), 30 mg/kg): 0.22 units/ml and 0.08 units/ml and 1.21 units/ml and 4.31 units/ml and 1.80 units/ml and 0.55 units/ml and 1.96 units/ml
levels of rat anti-collagen IgG1 antibodies relative to CIA induced, no treatment ([1]; 1 mg/kg, 10 mg/kg as printed, p<0.05): significantly decreased levels
levels of rat anti-collagen IgG1 antibodies relative to CIA induced, no treatment ([1]; 30 mg/kg, p<0.01): significantly decreased levels
Number of animals: Erosion/Ulcer, cartilaginous, Marked ([2]; 3 mg/kg): 0
Number of animals: Erosion/Ulcer, cartilaginous, Mild ([2]; 3 mg/kg): 2
Number of animals: Erosion/Ulcer, cartilaginous, Minimal ([2]; 3 mg/kg): 0
Number of animals: Erosion/Ulcer, cartilaginous, Moderate ([2]; 3 mg/kg): 6
Number of animals: Granulation tissue, Marked ([2]; 3 mg/kg): 0
Number of animals: Granulation tissue, Mild ([2]; 3 mg/kg): 1
Number of animals: Granulation tissue, Minimal ([2]; 3 mg/kg): 0
Number of animals: Granulation tissue, Moderate ([2]; 3 mg/kg): 7
Number of animals: Increased bone, periosteum, Marked ([2]; 3 mg/kg): 0
Number of animals: Increased bone, periosteum, Mild ([2]; 3 mg/kg): 7
Number of animals: Increased bone, periosteum, Minimal ([2]; 3 mg/kg): 0
Number of animals: Increased bone, periosteum, Moderate ([2]; 3 mg/kg): 1
Number of animals: Increased eroded surface, bone, Marked ([2]; 3 mg/kg): 0
Number of animals: Increased eroded surface, bone, Mild ([2]; 3 mg/kg): 5
Number of animals: Increased eroded surface, bone, Minimal ([2]; 3 mg/kg): 0
Number of animals: Increased eroded surface, bone, Moderate ([2]; 3 mg/kg): 3
Number of animals: Mixed cell inflammation, Marked ([2]; 3 mg/kg): 1
Number of animals: Mixed cell inflammation, Mild ([2]; 3 mg/kg): 0
Number of animals: Mixed cell inflammation, Minimal ([2]; 3 mg/kg): 0
Number of animals: Mixed cell inflammation, Moderate ([2]; 3 mg/kg): 7
Number of animals: No Visible Lesions ([2]; 3 mg/kg): 0
Number of animals: Erosion/Ulcer, cartilaginous, Marked ([2]; 10 mg/kg): 0
Number of animals: Erosion/Ulcer, cartilaginous, Mild ([2]; 10 mg/kg): 3
Number of animals: Erosion/Ulcer, cartilaginous, Minimal ([2]; 10 mg/kg): 1
Number of animals: Erosion/Ulcer, cartilaginous, Moderate ([2]; 10 mg/kg): 3
Number of animals: Granulation tissue, Marked ([2]; 10 mg/kg): 0
Number of animals: Granulation tissue, Mild ([2]; 10 mg/kg): 3
Number of animals: Granulation tissue, Minimal ([2]; 10 mg/kg): 0
Number of animals: Granulation tissue, Moderate ([2]; 10 mg/kg): 3
Number of animals: Increased bone, periosteum, Marked ([2]; 10 mg/kg): 0
Number of animals: Increased bone, periosteum, Mild ([2]; 10 mg/kg): 4
Number of animals: Increased bone, periosteum, Minimal ([2]; 10 mg/kg): 1
Number of animals: Increased bone, periosteum, Moderate ([2]; 10 mg/kg): 2
Number of animals: Increased eroded surface, bone, Marked ([2]; 10 mg/kg): 0
Number of animals: Increased eroded surface, bone, Mild ([2]; 10 mg/kg): 2
Number of animals: Increased eroded surface, bone, Minimal ([2]; 10 mg/kg): 2
Number of animals: Increased eroded surface, bone, Moderate ([2]; 10 mg/kg): 3
Number of animals: Mixed cell inflammation, Marked ([2]; 10 mg/kg): 2
Number of animals: Mixed cell inflammation, Mild ([2]; 10 mg/kg): 2
Number of animals: Mixed cell inflammation, Minimal ([2]; 10 mg/kg): 1
Number of animals: Mixed cell inflammation, Moderate ([2]; 10 mg/kg): 3
Number of animals: No Visible Lesions ([2]; 10 mg/kg): 0
Number of animals: Erosion/Ulcer, cartilaginous, Marked ([2]; 30 mg/kg): 0
Number of animals: Erosion/Ulcer, cartilaginous, Mild ([2]; 30 mg/kg): 4
Number of animals: Erosion/Ulcer, cartilaginous, Minimal ([2]; 30 mg/kg): 1
Number of animals: Erosion/Ulcer, cartilaginous, Moderate ([2]; 30 mg/kg): 0
Number of animals: Granulation tissue, Marked ([2]; 30 mg/kg): 0
Number of animals: Granulation tissue, Mild ([2]; 30 mg/kg): 1
Number of animals: Granulation tissue, Minimal ([2]; 30 mg/kg): 2
Number of animals: Granulation tissue, Moderate ([2]; 30 mg/kg): 4
Number of animals: Increased bone, periosteum, Marked ([2]; 30 mg/kg): 0
Number of animals: Increased bone, periosteum, Mild ([2]; 30 mg/kg): 2
Number of animals: Increased bone, periosteum, Minimal ([2]; 30 mg/kg): 1
Number of animals: Increased bone, periosteum, Moderate ([2]; 30 mg/kg): 0
Number of animals: Increased eroded surface, bone, Marked ([2]; 30 mg/kg): 0
Number of animals: Increased eroded surface, bone, Mild ([2]; 30 mg/kg): 4
Number of animals: Increased eroded surface, bone, Minimal ([2]; 30 mg/kg): 0
Number of animals: Increased eroded surface, bone, Moderate ([2]; 30 mg/kg): 0
Number of animals: Mixed cell inflammation, Marked ([2]; 30 mg/kg): 0
Number of animals: Mixed cell inflammation, Mild ([2]; 30 mg/kg): 3
Number of animals: Mixed cell inflammation, Minimal ([2]; 30 mg/kg): 0
Number of animals: Mixed cell inflammation, Moderate ([2]; 30 mg/kg): 4
Number of animals: No Visible Lesions ([2]; 30 mg/kg): 1
samples with pathologic observations ([2]; CIA rats, 3 mg/kg (group 5)): All samples
erosion/ulcer in articular cartilage [2, 4]: mild to moderate
granulation tissue (pannus) [2, 4]: mild and mild to moderate
increased eroded surface of bone (bone resorption) [2, 4]: mild to moderate
increased periosteal bone (periosteal bone formation) [2, 4]: mild to moderate
mixed cell inflammation [2, 4]: moderate to marked
samples with pathologic observations ([2]; CIA rats, 10 mg/kg (group 6)): All samples
erosion/ulcer in articular cartilage [2, 5]: mild and moderate
granulation tissue (pannus) [2, 5]: mild and moderate
increased eroded surface of bone (bone resorption) [2, 5]: mild and moderate
increased periosteal bone (periosteal bone formation) [2, 5]: minimal; also recorded: moderate
mixed cell inflammation [2, 5]: moderate
samples with no recorded pathological observations ([2]; CIA rats, 30 mg/kg (group 7)): One out of eight
erosion in the articular cartilages [2, 6]: mild
granulation tissue (pannus) [2, 6]: mild and moderate
increased eroded surface of bone (bone resorption) [2, 6]: mild
increased periosteal bone (periosteal bone formation) [2, 6]: mild
mixed cell inflammation [2, 6]: mild and moderate
pathologic observations after microscopic evaluation, overall ([2]; CIA rats, 3, 10 and 30 mg/kg (Groups 5-7)): at lower levels relative to samples from animals in the CIA-induced group (Group 2) in a dose-dependent manner
Plasma concentration ([3]; Day 21, Group 5 (CIA), 3 mg/kg, per animal): 37.5 ng/mL and 59.4 ng/mL and 64.9 ng/mL and 49.5 ng/mL and 65.2 ng/mL and 71.9 ng/mL and 69.6 ng/mL
Plasma concentration ([3]; Day 21, Group 6 (CIA), 10 mg/kg, per animal): 270 ng/mL and 134 ng/mL and 209 ng/mL and 281 ng/mL and 251 ng/mL and 313 ng/mL and 175 ng/mL and 28.4 ng/mL
Plasma concentration ([3]; Day 21, Group 7 (CIA), 30 mg/kg, per animal): 1620 ng/mL and 1260 ng/mL and 1430 ng/mL and 1220 ng/mL and 1350 ng/mL and 2000 ng/mL and 1440 ng/mL
day 20 plasma concentration versus dose ([3]; Lewis rats, oral administration): appeared to increase in a dose-dependent manner
AUClast/D [3, 7]: 528 (ng·h/mL)/(mg/kg)
AUC—% Extrap—obs [3, 7]: 1.11%
time at which plasma levels peaked after the second daily dose ([3]; Lewis rats, oral, second daily dose administered at 8 h): 10 h
concentration at 21 day ([3]; Lewis, rat, plasma, oral, 3 mg/kg, Day 21, Group 5 (CIA), 3 mg/kg, per animal, read-out: Plasma Concentration): 54.9 ng/mL
concentration at 21 day ([3]; Lewis, rat, plasma, oral, 3 mg/kg, Day 21, Group 5 (CIA), 3 mg/kg, read-out: Mean Plasma Concentration): 59.1 ng/mL
concentration at 21 day ([3]; Lewis, rat, plasma, oral, 10 mg/kg, Day 21, Group 6 (CIA), 10 mg/kg, read-out: Mean Plasma Concentration): 208 ng/mL
concentration at 0.5 h ([3]; Lewis, rat, plasma, oral, 10 mg/kg, oral, day 0, 10 mg/kg, 0.5 h, per test subject, read-out: Plasma concentration): 738 ng/mL
concentration at 1 h ([3]; Lewis, rat, plasma, oral, 10 mg/kg, oral, day 0, 10 mg/kg, 1 h, per test subject, read-out: Plasma concentration): 1090 ng/mL
concentration at 2 h ([3]; Lewis, rat, plasma, oral, 10 mg/kg, oral, day 0, 10 mg/kg, 2 h, per test subject, read-out: Plasma concentration): 1110 ng/mL
concentration at 4 h ([3]; Lewis, rat, plasma, oral, 10 mg/kg, oral, day 0, 10 mg/kg, 4 h, per test subject, read-out: Plasma concentration): 1170 ng/mL
concentration at 8 h ([3]; Lewis, rat, plasma, oral, 10 mg/kg, oral, day 0, 10 mg/kg, 8 h, per test subject, read-out: Plasma concentration): 190 ng/mL
concentration at 10 h ([3]; Lewis, rat, plasma, oral, 10 mg/kg, oral, day 0, 10 mg/kg, 10 h, per test subject, read-out: Plasma concentration): 1880 ng/mL
concentration at 12 h ([3]; Lewis, rat, plasma, oral, 10 mg/kg, oral, day 0, 10 mg/kg, 12 h, per test subject, read-out: Plasma concentration): 772 ng/mL
concentration at 14 h ([3]; Lewis, rat, plasma, oral, 10 mg/kg, oral, day 0, 10 mg/kg, 14 h, per test subject, read-out: Plasma concentration): 324 ng/mL
concentration at 0.25 h ([3]; Lewis, rat, plasma, oral, 10 mg/kg, oral, day 20, 10 mg/kg, 0.25 h, per test subject, read-out: Plasma concentration): 1260 ng/mL
